Source: patent US20250281564A1, “DYSREGULATION OF NEUROPROTEASOMES BY APOE ISOFORMS DRIVES ENDOGENOUS TAU AGGREGATION” (The Trustees of Columbia University in the City of New York, priority 2022, published 2025)

Columns and labels:
[1] = tested on: Thioflavin S-positive aggregates; experiment: Thioflavin S staining of hippocampal sections of hTau-KI mice after stereotactic injection; conditions: hTau-KI mice, stereotactic, 72 hours
phosphorylated Tau = experiment: Immunohistochemistry for phosphorylated Tau (AT8) in hTau-KI mice after stereotactic injection; conditions: hTau-KI mice, stereotactic, 72 hours

SMILES: C[C@@H]1C[C@@H]([C@H](O)CC2CC(=O)NC(=O)C2)C(=O)[C@@H](C)C1 [cycloheximide, reference compound]
- ThioS+ staining, co-injection with iBEp vs iBEp alone [1]: complete return to baseline of ThioS+ staining
- AT8 staining, co-injection with iBEp vs contralateral iBEp alone (phosphorylated Tau): completely eliminated AT8 staining
